This note sets out measurements from ChEMBL document CHEMBL1212704, “Structural and biochemical evidence for a boat-like transition state in beta-mannosidases” (Nat Chem Biol, 2008).

Sequence of Beta-mannosidase (Bacteroides thetaiotaomicron (strain ATCC 29148 / DSM 2079 / NCTC10582 / E50 / VPI-5482), UniProt Q8AAK6, W645A) (Q8AAK6 26-864 W645A limits assumed): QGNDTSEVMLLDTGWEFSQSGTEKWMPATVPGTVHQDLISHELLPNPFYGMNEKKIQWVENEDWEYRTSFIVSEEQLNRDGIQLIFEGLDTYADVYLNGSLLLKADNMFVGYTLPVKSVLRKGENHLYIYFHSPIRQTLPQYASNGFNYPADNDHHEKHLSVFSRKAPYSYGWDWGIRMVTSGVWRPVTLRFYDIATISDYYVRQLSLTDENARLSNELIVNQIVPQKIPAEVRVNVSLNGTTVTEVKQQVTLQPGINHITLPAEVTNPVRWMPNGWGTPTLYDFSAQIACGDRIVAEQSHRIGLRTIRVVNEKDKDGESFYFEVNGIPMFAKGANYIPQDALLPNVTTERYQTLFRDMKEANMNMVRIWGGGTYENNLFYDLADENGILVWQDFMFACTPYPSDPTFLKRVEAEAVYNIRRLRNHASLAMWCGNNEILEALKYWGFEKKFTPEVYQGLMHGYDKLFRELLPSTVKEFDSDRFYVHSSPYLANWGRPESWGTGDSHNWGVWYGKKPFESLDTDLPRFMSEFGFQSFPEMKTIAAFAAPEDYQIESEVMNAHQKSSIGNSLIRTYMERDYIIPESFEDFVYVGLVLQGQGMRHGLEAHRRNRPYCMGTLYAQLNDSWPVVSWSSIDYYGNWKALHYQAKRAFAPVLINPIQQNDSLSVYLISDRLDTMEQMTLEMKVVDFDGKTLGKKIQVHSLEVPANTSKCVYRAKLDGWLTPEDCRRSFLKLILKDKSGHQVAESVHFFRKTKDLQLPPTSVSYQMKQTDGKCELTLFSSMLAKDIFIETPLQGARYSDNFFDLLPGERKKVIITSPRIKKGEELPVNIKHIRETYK
Sequence of Beta-mannosidase (Bacteroides thetaiotaomicron (strain ATCC 29148 / DSM 2079 / NCTC10582 / E50 / VPI-5482), UniProt Q8AAK6, Q646A) (Q8AAK6 26-864 Q646A limits assumed): as the sequence (Q8AAK6 26-864 W645A limits assumed) above, with A620W, Q621A counted along it
Sequence of Beta-mannosidase (Bacteroides thetaiotaomicron (strain ATCC 29148 / DSM 2079 / NCTC10582 / E50 / VPI-5482), UniProt Q8AAK6, N461A) (Q8AAK6 26-864 N461A limits assumed): as the sequence (Q8AAK6 26-864 W645A limits assumed) above, with N436A, A620W counted along it
Sequence of Beta-mannosidase (Bacteroides thetaiotaomicron (strain ATCC 29148 / DSM 2079 / NCTC10582 / E50 / VPI-5482), UniProt Q8AAK6, Y537A) (Q8AAK6 26-864 Y537A limits assumed): as the sequence (Q8AAK6 26-864 W645A limits assumed) above, with Y512A, A620W counted along it
Sequence of Beta-mannosidase (Bacteroides thetaiotaomicron (strain ATCC 29148 / DSM 2079 / NCTC10582 / E50 / VPI-5482), UniProt Q8AAK6, W198G) (Q8AAK6 26-864 W198G limits assumed): as the sequence (Q8AAK6 26-864 W645A limits assumed) above, with W173G, A620W counted along it

The first test has as its target Beta-mannosidase (Bacteroides thetaiotaomicron (strain ATCC 29148 / DSM 2079 / NCTC10582 / E50 / VPI-5482), UniProt Q8AAK6, W645A).
The term Ki denotes a dissociation constant, usually derived from enzyme kinetics or from competition with a known ligand. Low values mean a stronger hold on the target, high ones a looser hold on the target. Molecule `OC[C@@H]1[C@@H](O)[C@H](O)[C@H](O)c2nc(CCc3ccccc3)cn21` came in with a Ki of 324 µM.
Regarding `OC[C@@H]1[C@@H](O)[C@H](O)[C@H](O)c2nc(CNc3ccccc3)cn21`, the Ki was 68.1 µM. This Ki is about 4.8-fold lower than that of the molecule before.
The same measure, in the same setting: as for `OC[C@@H]1[C@@H](O)[C@H](O)[C@H](O)c2nc(COc3ccccc3)cn21`, the figure is 245 µM.
`CCC/N=C1\N[C@H](CO)[C@@H](O)[C@H](O)[C@@H]1O` registered a Ki of 5700 µM.
`OC[C@H]1C[C@H]2[C@@H](O)[C@@H](O)[C@@]1(O)CN2Cc1ccccc1` gave a Ki of 14400 µM.
The same measure, in the same setting: as for `OC[C@H]1CNC(O)[C@@H](O)[C@@H]1O` (some centres undefined), the figure is 1.11 µM.

The next test concerns the target Beta-mannosidase (Bacteroides thetaiotaomicron (strain ATCC 29148 / DSM 2079 / NCTC10582 / E50 / VPI-5482), UniProt Q8AAK6, W198G).
With `OC[C@@H]1[C@@H](O)[C@H](O)[C@H](O)c2nc(CCc3ccccc3)cn21`, the Ki came out at 14.2 µM.
Same read-out and setting: the result for `OC[C@@H]1[C@@H](O)[C@H](O)[C@H](O)c2nc(CNc3ccccc3)cn21` reads 58.5 µM; that for `OC[C@@H]1[C@@H](O)[C@H](O)[C@H](O)c2nc(COc3ccccc3)cn21`, 356 µM.
As to `CCC/N=C1\N[C@H](CO)[C@@H](O)[C@H](O)[C@@H]1O`, the Ki was determined as 10500 µM.
Turning to `OC[C@H]1C[C@H]2[C@@H](O)[C@@H](O)[C@@]1(O)CN2Cc1ccccc1`, the affinity corresponds to a Ki of 5690 µM.
With `OC[C@H]1CNC(O)[C@@H](O)[C@@H]1O` (some centres undefined), the affinity, expressed as Ki, was 788 µM.

In the next test the target is Beta-mannosidase (Bacteroides thetaiotaomicron (strain ATCC 29148 / DSM 2079 / NCTC10582 / E50 / VPI-5482), UniProt Q8AAK6, W395A).
Sequence of Beta-mannosidase (Bacteroides thetaiotaomicron (strain ATCC 29148 / DSM 2079 / NCTC10582 / E50 / VPI-5482), UniProt Q8AAK6, W395A) (Q8AAK6 26-864 W395A limits assumed): as the sequence (Q8AAK6 26-864 W645A limits assumed) above, with W370A, A620W counted along it
As to `OC[C@@H]1[C@@H](O)[C@H](O)[C@H](O)c2nc(CCc3ccccc3)cn21`, affinity was put at a Ki of 47 µM.
On to `OC[C@@H]1[C@@H](O)[C@H](O)[C@H](O)c2nc(CNc3ccccc3)cn21`, for which the affinity, expressed as Ki, was 46.6 µM. This Ki and that of the molecule before are within 1.5-fold of each other.
Same read-out and setting: as for `OC[C@@H]1[C@@H](O)[C@H](O)[C@H](O)c2nc(COc3ccccc3)cn21`, the figure is 284 µM; as for `CCC/N=C1\N[C@H](CO)[C@@H](O)[C@H](O)[C@@H]1O`, 1180 µM; as for `OC[C@H]1C[C@H]2[C@@H](O)[C@@H](O)[C@@]1(O)CN2Cc1ccccc1`, 2850 µM.
Still for that read-out and setting: the result for `OC[C@H]1CNC(O)[C@@H](O)[C@@H]1O` (some centres undefined) reads 40.8 µM.

Target in another test: not listed separately
Briefly: Inhibition of wild type Bacteroides thetaiotaomicron beta-mannosidase 2A expressed in Escherichia coli BL21 (DE3) at 37 degC and Ph 5.6 by 2,4-dinitrophenolate release assay.
The molecule `CCCCN1C[C@H](O)[C@@H](O)[C@H](O)[C@H]1CO` came in with a Ki of 6000 µM. In other words, the millimolar range.
As to `OC[C@@H]1[C@@H](O)[C@H](O)[C@H](O)c2nc(CCc3ccccc3)cn21`, the Ki came to 0.057 µM. In other words, the double-digit nanomolar range.
Regarding `OC[C@@H]1[C@@H](O)[C@H](O)[C@H](O)c2nc(COc3ccccc3)cn21`, the affinity, expressed as Ki, was 0.401 µM.
Consider `OC[C@@H]1[C@@H](O)[C@H](O)[C@H](O)c2nc(C#Cc3ccccc3)cn21`, for which the affinity corresponds to a Ki of 2.4 µM.
On the same count and under the same terms, as for `NCCC/N=C1\N[C@H](CO)[C@@H](O)[C@H](O)[C@@H]1O`, the figure is 2.1 µM; as for `OCCC/N=C1\N[C@H](CO)[C@@H](O)[C@H](O)[C@@H]1O`, 2.2 µM.
Still for that read-out and setting: the result for `CCC/N=C1\N[C@H](CO)[C@@H](O)[C@H](O)[C@@H]1O` reads 1.9 µM.
In the case of `NCCCC/N=C1\N[C@H](CO)[C@@H](O)[C@H](O)[C@H]1O`, the inhibition constant Ki stood at 22 µM. This Ki lies about 12-fold higher than the previous one.
In turn, `OC[C@H]1C[C@@H]2NC[C@]1(O)[C@H](O)[C@@H]2O` yielded a Ki of 500 µM.
Take `OC[C@@H]1[C@@H](O)[C@H](O)[C@H](O)c2nnnn21`: the Ki came to 1000 µM.
As for `O[C@@H]1[C@@H](O)[C@H](O)[C@@]2(O)CC[C@H]1N2`, the Ki was 11000 µM.
As to `OC[C@H]1N/C(=N/O)[C@H](O)[C@@H](O)[C@@H]1O`, the inhibition constant (Ki) turned out to be 2000 µM.
Same read-out and setting: as for `CC(C)O[C@@H]1O[C@]2(CO)CC[C@]1(O)[C@@H](O)[C@@H]2O`, the figure is > 400000 µM; as for `OC[C@H]1CNC[C@@H](O)[C@@H]1O` [AFEGOSTAT], 9000 µM.
Same read-out and setting: as for `O[C@H]1[C@H](O)[C@@H](O)CN2CC[C@H](O)[C@H]12` [CASTANOSPERMINE], the figure is 23000 µM; as for `OC[C@H]1NC[C@H](O)[C@@H](O)[C@@H]1O` [DUVOGLUSTAT], 14000 µM; as for `OC[C@H]1ONC[C@@H](O)[C@@H]1O` [TETRAHYDROOXAZINE], 20000 µM.

The next test has as its target Beta-mannosidase (Bacteroides thetaiotaomicron (strain ATCC 29148 / DSM 2079 / NCTC10582 / E50 / VPI-5482), UniProt Q8AAK6, N461A).
For the molecule `OC[C@@H]1[C@@H](O)[C@H](O)[C@H](O)c2nc(CCc3ccccc3)cn21`, the Ki was found to be 3.19 µM. That is a single-digit micromolar value.
Molecule `OC[C@@H]1[C@@H](O)[C@H](O)[C@H](O)c2nc(CNc3ccccc3)cn21` displayed an inhibitory constant (Ki) of 7.28 µM.
`OC[C@@H]1[C@@H](O)[C@H](O)[C@H](O)c2nc(COc3ccccc3)cn21` came in with a Ki of 19.1 µM.
Turning to `CCC/N=C1\N[C@H](CO)[C@@H](O)[C@H](O)[C@@H]1O`, the Ki came out at 34.8 µM.
Still for that read-out and setting: as for `OC[C@H]1C[C@H]2[C@@H](O)[C@@H](O)[C@@]1(O)CN2Cc1ccccc1`, the figure is 3750 µM; as for `OC[C@H]1CNC(O)[C@@H](O)[C@@H]1O` (some centres undefined), 641 µM.

Another test has as its target Beta-mannosidase (Bacteroides thetaiotaomicron (strain ATCC 29148 / DSM 2079 / NCTC10582 / E50 / VPI-5482), UniProt Q8AAK6, Q646A).
Consider `OC[C@@H]1[C@@H](O)[C@H](O)[C@H](O)c2nc(CCc3ccccc3)cn21`, for which the Ki came to 0.245 µM.
On to `OC[C@@H]1[C@@H](O)[C@H](O)[C@H](O)c2nc(CNc3ccccc3)cn21`, for which the inhibition constant (Ki) is 0.311 µM.
With `OC[C@@H]1[C@@H](O)[C@H](O)[C@H](O)c2nc(COc3ccccc3)cn21`, the Ki came to 0.494 µM.
Take `CCC/N=C1\N[C@H](CO)[C@@H](O)[C@H](O)[C@@H]1O`: affinity was put at a Ki of 71.2 µM.
The molecule `OC[C@H]1C[C@H]2[C@@H](O)[C@@H](O)[C@@]1(O)CN2Cc1ccccc1` showed a Ki of 121 µM.
For the molecule `OC[C@H]1CNC(O)[C@@H](O)[C@@H]1O` (some centres undefined), the inhibition constant (Ki) came to 14 µM.

Another test addresses Beta-mannosidase (Bacteroides thetaiotaomicron (strain ATCC 29148 / DSM 2079 / NCTC10582 / E50 / VPI-5482), UniProt Q8AAK6, Y537A).
For `OC[C@@H]1[C@@H](O)[C@H](O)[C@H](O)c2nc(CCc3ccccc3)cn21`, the affinity, expressed as Ki, was 0.71 µM.
The same measure, in the same setting: as for `OC[C@@H]1[C@@H](O)[C@H](O)[C@H](O)c2nc(CNc3ccccc3)cn21`, the figure is 1.54 µM; as for `OC[C@@H]1[C@@H](O)[C@H](O)[C@H](O)c2nc(COc3ccccc3)cn21`, 2.65 µM.
In the case of `CCC/N=C1\N[C@H](CO)[C@@H](O)[C@H](O)[C@@H]1O`, the Ki worked out at 84 µM. Compared with the last molecule, the Ki is about 32-fold higher.
For the molecule `OC[C@H]1C[C@H]2[C@@H](O)[C@@H](O)[C@@]1(O)CN2Cc1ccccc1`, the affinity corresponds to a Ki of 233 µM.
Turning to `OC[C@H]1CNC(O)[C@@H](O)[C@@H]1O` (some centres undefined), the Ki came out at 19.2 µM.

Target in a further test: not listed separately
Briefly: Inhibition of Thermotoga maritima Beta-glucosidase GH1.
In turn, `OC[C@@H]1[C@@H](O)[C@H](O)[C@H](O)c2nnnn21` registered a Ki of 0.17 µM.
